For data set [1] the following is noted: in vivo; cited from earlier work.
For data set [2] the following is noted: in particular moderate or severe renal impairment, or ESRD; cited from earlier work.
Data set [3] is described as follows: Phase 1 trial: PK of a single subcutaneous dose of 10 mg glepaglutide in subjects with severe renal impairment/ESRD vs normal renal function. It counts as in vivo, human. How it is done:
The study was designed as a two-stage design, open-label, multi-center, non-randomized trial evaluating the PK of a single, subcutaneous dose of 10 mg glepaglutide in subjects with varying degrees of renal function. The renal function was calculated by the estimated glomerular filtration rate (eGFR) according to the Modification of Diet in Renal Disease (MDRD) equation.
Sixteen Caucasian subjects were enrolled, 4 with end stage renal disease (ESRD) not on dialysis (eGFR<15 mL/min), 4 with severe renal impairment (eGFR<30 mL/min) and 8 matching controls with normal renal function (eGFR>90 mL/min) (Table 1). Demographics, except eGFR, was similar across groups (Table 1).
Glepaglutide (ZP1848, 10 mg) was provided in a single-use vial containing 1 mL (an extractable volume of 0.5 mL) of a clear, colourless solution for subcutaneous injection, with a concentration of 20 mg/mL glepaglutide.
PK-blood samples were collected over a 14 day period following a single dose of 10 mg glepaglutide in the abdomen. The PK-samples were analyzed for glepaglutide, ZP2469 and ZP2711 using a GLP-validated LC/MS/MS assay.
The primary PK parameters were area under the curve between dose and last measurable concentration (AUCt), extrapolated to infinity (AUCinf) and calculated from 0 to 168 hours (AUC0-168) and the maximum plasma concentration (Cmax), which were computed for glepaglutide, ZP2469, ZP2711. A constructed analyte “glepaglutide-total” (glepaglutide+ZP2469+ZP2711) was used for the primary endpoint, and analysed using a non-compartmental approach.

In the case of “Hy-His-Ala-Asp-Gly-Ser-Phe-Ser-Asp-Glu-Met-Asn-Thr-Ile-Leu-Asp-Asn-Leu-Ala-Ala-Arg-Asp-Phe-Ile-Asn-Trp-Leu-Ile-Gln-Thr-Lys-Ile-Thr-Asp-OH [GLP-2 [1-33]]”, the Half-life in humans entry in data set [1] is listed as “around 7 minutes”.

Regarding “GLP-2 [3-33]: truncated GLP-2 [3-33] (DGSFSDEMNTILDNLAARDFINWLIQTKITD; Glucagon-like peptide 2; UniProt P01275 148-178, looked up, fragment)”, the Half-life in humans in data set [1] was 27 min.

As for `CC[C@H](C)[C@H](NC(=O)[C@H](Cc1ccccc1)NC(=O)[C@H](CC(=O)O)NC(=O)[C@H](CCCNC(=N)N)NC(=O)[C@H](C)NC(=O)[C@H](C)NC(=O)[C@H](CC(C)C)NC(=O)[C@H](CC(N)=O)NC(=O)[C@H](CC(=O)O)NC(=O)[C@H](CC(C)C)NC(=O)[C@@H](NC(=O)[C@@H](NC(=O)[C@H](CC(N)=O)NC(=O)[C@H](CCSC)NC(=O)[C@H](CCC(=O)O)NC(=O)[C@H](CC(=O)O)NC(=O)[C@H](CO)NC(=O)[C@H](Cc1ccccc1)NC(=O)[C@H](CO)NC(=O)CNC(=O)[C@H](CC(=O)O)NC(=O)CNC(=O)[C@@H](N)Cc1c[nH]cn1)[C@@H](C)O)[C@@H](C)CC)C(=O)N[C@@H](CC(N)=O)C(=O)N[C@@H](Cc1c[nH]c2ccccc12)C(=O)N[C@@H](CC(C)C)C(=O)N[C@H](C(=O)N[C@@H](CCC(N)=O)C(=O)N[C@H](C(=O)N[C@@H](CCCCN)C(=O)N[C@H](C(=O)N[C@H](C(=O)N[C@@H](CC(=O)O)C(=O)O)[C@@H](C)O)[C@@H](C)CC)[C@@H](C)O)[C@@H](C)CC` [teduglutide], the “Clearance in subjects with renal dysfunction” value in data set [2] is reported as “impaired”.

“H-HGEGTFSSELATILDALAARDFIAWLIATKITDKKKKKK-NH2 [ZP1848]”: the “Clearance in patients with renal impairment” value in data set [3] (human, in vivo) was “cleared normally”. In addition, the “Difference in total exposure (AUC0-168h) and peak plasma concentrations (Cmax), severe renal impairment/ESRD vs normal renal function” value in data set [3] (single SC dose) is recorded as “no clinically relevant difference”. In addition, the “Difference in primary PK parameters (AUCt, AUCinf, AUC0-168, Cmax), severe renal impairment and ESRD vs healthy matched subjects” value in data set [3] (single SC dose 10 mg glepaglutide) is reported as “no statistically significant differences”.

The values above are taken from patent US20240091317A1, “USE OF GLP-2 ANALOGUES IN PATIENTS WITH RENAL INSUFFICIENCY” (Zealand Pharma A/S, priority 2020, published 2024).
